Assay results from PubChem BioAssay AID1996.
Values after ≈ are worked out from the molar mass of the structure shown.

conditions: buffer; pH 7.4; 200.0 µM

SMILES | solubility kinetic [µg/mL]
O=C(COc1ccccc1[N+](=O)[O-])Nc1cc(Cl)ccc1C(=O)O | > 52.6
CCc1sc(C(=O)Nc2ccc(OC)c(S(=O)(=O)N3CCOCC3)c2)cc1C | 22.9 (≈ 53.9 µM)
COc1ccc(-c2nc3c(s2)CN(S(C)(=O)=O)CC3)cc1OC | 10.6 (≈ 29.9 µM)
Cc1ccc(S(=O)(=O)NCc2ccccc2)cc1 | 25.9 (≈ 99.1 µM)
COc1ccc(Oc2nc(-c3ccccn3)nc3ccccc23)cc1 | 17.6 (≈ 53.4 µM)
O=C(O)c1ccccc1C(=O)Nc1nc(-c2ccc3ccccc3c2)cs1 | > 56.2
COc1ccc(S(=O)(=O)n2cnc3ccccc32)c(C)c1 | 17 (≈ 56.2 µM)
O=C(CSc1ccc(-c2ccc(F)cc2)nn1)NCC1CCCO1 (stereo unspecified) | > 52.1
CC1(C)CC2CC(C)(CN2C(=O)COC(=O)c2ccc(O)cc2O)C1 (stereo unspecified) | 23.4 (≈ 67.4 µM)
Cc1cccc(N=Cc2c(O)n(C)c(=O)n(C)c2=O)c1 | 10 (≈ 36.6 µM)
CCOc1ccc(S(=O)(=O)NCc2ccc3c(c2)OCO3)cc1 | 10.9 (≈ 32.5 µM)
COc1ccc(NC(=O)c2cc(S(=O)(=O)N3CCCC3)oc2C)cc1 | 2.5 (≈ 6.86 µM)
COc1ccc2[nH]cc(CCNC(=O)c3ccc4ccccc4n3)c2c1 | 1.6 (≈ 4.63 µM)
CC(=O)N1CCN(C(=O)CCCNC(=O)c2ccc(Cl)cc2)CC1 | > 52.8
COc1ccc(NC(=O)CN2CCN(CC#N)CC2)cc1 | > 43.3
Cl.c1ccc2c(c1)OCC(C1=NCCN1)O2 (stereo unspecified) | > 36.1
O=C(CN1C(=O)c2ccccc2C1=O)Nc1cccc(Cl)c1 | 21.2 (≈ 67.4 µM)
CC(C)(C)c1cc(NS(=O)(=O)c2ccc(Br)s2)no1 | 30.1 (≈ 82.4 µM)
CC1(C)CCc2cc(-c3ccnc(=S)[nH]3)ccc2O1 | 8.5 (≈ 31.2 µM)
O=C(Cc1cccs1)NCc1cccc(Cl)c1 | > 39.9
CC(=O)N(CCS(=O)(=O)c1ccc(Cl)cc1)Cc1cccs1 | 39.9 (≈ 111 µM)

SMILES | solubility kinetic [µg/mL]
Cc1cc(C(F)(F)F)nc(SCCN2CCOCC2)c1C#N | 43.3 (≈ 131 µM)
CC(C)(C)c1ccc(NC(=O)c2ccsc2)cc1 | 1.1 (≈ 4.24 µM)
COC(=O)/C=C1\N/C(=N\c2nc(C)cc(C)n2)N(c2ccccc2)C1=O | > 52.7
O=C(NCc1cccnc1)Nc1cccc(Cl)c1 | 37.2 (≈ 142 µM)
Cc1ccc(F)cc1NC(=O)c1cnccn1 | > 34.7
Cn1cc([N+](=O)[O-])c(C(=O)NCc2ccco2)n1 | > 37.5
C/C(=N\O)c1noc(C)c1C(=O)Nc1nccs1 | 2 (≈ 7.51 µM)
O=C1ON=C(c2ccc([N+](=O)[O-])cc2)/C1=C/c1ccccc1O | > 46.5
CCc1ccc(N2C(=O)CN(Cc3sccc3C)C2=S)cc1 | < 0.4
Cc1ccc(NS(=O)(=O)c2ccc3[nH]c(=O)[nH]c3c2)cc1 | 5.4 (≈ 17.8 µM)
Cc1cccc(CSc2ncnc3ccccc23)c1 | 0.4 (≈ 1.5 µM)
COc1ccc(C(C)(C)C)cc1NC(=O)C1=CC=CN2CCS(=O)(=O)N=C12 | 1.7 (≈ 4.36 µM)
O=C(CN1C(=O)COc2ccc(Cl)cc21)NCC1CCCO1 (stereo unspecified) | > 48.7
Cn1c(O)c(C=NCCN2CCNCC2)c(=O)[nH]c1=O | > 42.2
COc1cc2c(cc1NC(=O)CCC(=O)O)oc1ccccc12 | 46.7 (≈ 149 µM)
CCC(=O)N/C(=N/c1nc(C)cc(C)n1)Nc1ccccc1 | 13 (≈ 43.7 µM)
CC(=O)N(CN1C(=O)C2C3C=CC(C3)C2C1=O)c1cccc(Cl)c1 (stereo unspecified) | 50.4 (≈ 146 µM)
CC(=O)Nc1cccc(-c2csc(Nc3ncccn3)n2)c1 | 3.5 (≈ 11.2 µM)
Clc1cccc(CN2CCSCC2)c1 | 3.8 (≈ 16.7 µM)
O=C(Nc1cc2c(cc1Br)OCCO2)c1cccnc1 | > 50.3
CN(CC(=O)Nc1cccc(F)c1)C(=O)c1cccc2ccccc12 | > 50.5

SMILES | solubility kinetic [µg/mL]
CC(OC(=O)/C=C/c1ccccc1)C(=O)NC1CCCCC1C (stereo unspecified) | 8.4 (≈ 26.6 µM)
Cc1ccccc1NC(=S)c1ccc2ccccc2n1 | < 0.3
NS(=O)(=O)c1ccc2c(c1)C(=NO)c1cc(S(N)(=O)=O)ccc1-2 | 4.6 (≈ 13 µM)
O=C1CSC(c2cccnc2)N1Cc1ccc(Cl)cc1 (stereo unspecified) | 42.6 (≈ 140 µM)
COc1ccccc1CCC(=O)OCC(=O)NC1CCCC1 | > 45.8
Cc1ccc(Sc2c([N+](=O)[O-])c(=O)n(C)c3ccccc23)cc1 | < 0.3
Cc1nc2ccc(Br)cc2c2c1CC(CBr)O2 (stereo unspecified) | 2.2 (≈ 6.16 µM)
O=C(c1cccc(Cl)c1)N1CCCc2ccccc21 | 33.6 (≈ 124 µM)
COc1ccccc1NC(=O)NCc1ccc(C)n1C | 19.9 (≈ 72.8 µM)
CC(C)C[C@H](NC(=O)N1CCCCCC1)C(=O)O | > 38.5
O=C(Nc1ccc(F)cc1)C1CCN(C(=O)c2ccc(F)cc2)CC1 | > 51.7
Cc1cc(C(=O)OCC(=O)Nc2ccccc2Br)c(C)o1 | 4.4 (≈ 12.5 µM)
Cc1ccc(Nc2cc(C)nc3c(C)cccc23)cc1 | 35 (≈ 133 µM)
CS(=O)(=O)N1CCN(C(=O)Cc2ccc([N+](=O)[O-])cc2)CC1 | 49 (≈ 150 µM)
COc1ccc(N2C(=O)/C(=C/c3ccco3)C(=O)NC2=S)cc1 | 48.8 (≈ 149 µM)
O=C(Nc1nnc(C2=COCCO2)o1)c1ccc(F)cc1 | > 43.7
Cc1ccc(NC(=S)NC(=O)C2CCCC2)c(Br)c1 | 4.2 (≈ 12.3 µM)
N/C(=N\OC(=O)C1CCCCC1)c1cccc(Br)c1 | 3.5 (≈ 10.8 µM)
N#CCN1C(=O)NC2(CCCc3sccc32)C1=O (stereo unspecified) | > 39.2
